Test results taken from EPA's ToxRefDB 2.

Columns and labels:
rat [1] = details: Carcinogenicity, fischer, Oral, Feed, dose end: 103 week, group: systemic
rat [2] = details: Subchronic oral toxicity in rodents, fischer, Feed, dose end: 13 week, group: systemic
mouse [3] = details: Subchronic oral toxicity in rodents, b6c3f1, Feed, dose end: 13 week, group: systemic
mouse [4] = details: Carcinogenicity, b6c3f1, Oral, Feed, dose end: 103 week, group: systemic
rabbit = details: Sub-acute dermal toxicity, new zealand white, Topical, dose end: 21 day, group: systemic
rat [5] = details: Prenatal developmental toxicity study, wistar, Oral, Gavage/Intubation, dose end: 15 GD
rat [6] = details: Subchronic oral toxicity in rodents, fischer, Feed, dose end: 13 week, group: systemic; remark: listed apart in the source
mouse [7] = details: Combined chronic toxicity/carcinogenicity; b6c3f1; Oral; Feed; dose end: 2 year; group: systemic; systemic / in life observation / body weight / body weight
mouse [8] = details: Prenatal developmental toxicity study, cd1, Oral, Gavage/Intubation, dose end: 14 GD
rat [9] = details: Combined chronic toxicity/carcinogenicity, fischer, Oral, Feed, dose end: 2 year, group: systemic
rat [10] = details: Prenatal developmental toxicity study, sprague dawley, Oral, Gavage/Intubation, dose end: 15 GD
mouse [11] = details: Subchronic oral toxicity in rodents, b6c3f1, Feed, dose end: 13 week, group: systemic; remark: listed apart in the source
mouse [12] = details: Prenatal developmental toxicity study, cd1, Oral, Gavage/Intubation, dose end: 15 GD
[13] = systemic / pathology microscopic / liver / basophilic focus + systemic / pathology microscopic / liver / eosinophilic focus + systemic / …
[14] = systemic / pathology microscopic / liver / hyperplasia + systemic / pathology microscopic / liver / basophilic focus + systemic / pathology …
[15] = systemic / in life observation / body weight / body weight + systemic / pathology microscopic / kidney / pigmentation + systemic / in life …
[16] = systemic / pathology microscopic / kidney / hemosiderosis + systemic / pathology microscopic / liver / hemosiderosis + systemic / pathology …
[17] = systemic / in life observation / body weight / body weight
[18] = systemic / in life observation / clinical signs / erythema
[19] = systemic / in life observation / clinical signs / erythema + systemic / in life observation / body weight / body weight + systemic / in life…
[20] = group: developmental, developmental / developmental malformation / eye / anophthalmia + developmental / developmental malformation / eye / microphthalmia + …
[21] = group: maternal, systemic / in life observation / body weight / body weight gain + systemic / in life observation / clinical signs / labored respiration
[22] = group: maternal, systemic / in life observation / body weight / body weight gain + systemic / in life observation / clinical signs / labored respiration + …
[23] = systemic / in life observation / body weight / body weight + systemic / in life observation / clinical signs / aggressive behavior + …
[24] = group: developmental, systemic / in life observation / body weight / fetal weight
[25] = group: developmental, systemic / in life observation / body weight / fetal weight + developmental / developmental malformation / mouth / jaw / cleft palate
[26] = group: maternal, systemic / in life observation / body weight / body weight gain
[27] = group: maternal, systemic / in life observation / body weight / body weight gain + systemic / in life observation / body weight / body weight + systemic / in…
[28] = systemic / pathology microscopic / liver / granuloma
[29] = systemic / pathology microscopic / liver / granuloma + systemic / pathology microscopic / pituitary gland / adenoma
[30] = group: developmental, developmental / developmental malformation / kidney / hydronephrosis + developmental / developmental malformation / ureter / hydroureter + …
[31] = group: maternal, systemic / in life observation / body weight / body weight + systemic / in life observation / body weight / body weight gain + systemic / in…
[32] = systemic / in life observation / body weight / body weight + systemic / in life observation / clinical signs / fur (altered appearance) + …
[33] = group: developmental, developmental / developmental malformation / mouth / jaw / cleft palate + systemic / in life observation / body weight / fetal weight
[34] = group: maternal, systemic / in life observation / body weight / body weight gain + systemic / in life observation / body weight / body weight + systemic / …

Oc1ccc2ccccc2c1N=Nc1ccccc1 [C.I. Solvent Yellow 14]
LOAEL (rat [1]; [13]): 25 mg/kg/day
NOAEL (rat [1]; [13]): 12.5 mg/kg/day
LEL (rat [1]; [14]): 12.5 mg/kg/day
NEL (rat [1]; [14]): < 12.5 mg/kg/day
NEL (rat [2]; [15]): 12.5 mg/kg/day
NOAEL (rat [2]; [15]): 25 mg/kg/day
LOAEL (rat [2]; systemic / in life observation / body weight / body weight + systemic / pathology microscopic / kidney / pigmentation + systemic / pathology…): 50 mg/kg/day
LEL (rat [2]; systemic / pathology microscopic / kidney / pigmentation): 25 mg/kg/day
LOAEL (mouse [3]; [16]): 300 mg/kg/day
NEL (mouse [3]; [16]): 75 mg/kg/day
NOAEL (mouse [3]; [16]): 150 mg/kg/day
LEL (mouse [3]; systemic / pathology microscopic / spleen / hemosiderosis): 150 mg/kg/day
LEL (mouse [4]; [17]): 75 mg/kg/day
LOAEL (mouse [4]; [17]): 150 mg/kg/day
NEL (mouse [4]; [17]): < 75 mg/kg/day
NOAEL (mouse [4]; systemic / in life observation / body weight / body weight + systemic / in life observation / body weight / body weight gain): 75 mg/kg/day

Cc1cc(O)ccc1Cl [4-Chloro-3-methylphenol]
LOAEL (rabbit; [18]): 10 mg/kg/day
NOAEL (rabbit; [18]): < 10 mg/kg/day
LEL (rabbit; [19]): 10 mg/kg/day
NEL (rabbit; [19]): < 10 mg/kg/day
LEL (rat [5]; [20]): 300 mg/kg/day
LOAEL (rat [5]; [20]): 300 mg/kg/day
NEL (rat [5]; [20]): 100 mg/kg/day
NOAEL (rat [5]; [20]): 100 mg/kg/day
LEL (rat [5]; [21]): 100 mg/kg/day
LOAEL (rat [5]; [21]): 100 mg/kg/day
NEL (rat [5]; [22]): 30 mg/kg/day
NOAEL (rat [5]; [22]): 30 mg/kg/day

CN(C)CCOC(c1ccccc1)c1ccccc1.Cl [Diphenhydramine hydrochloride]
LOAEL (rat [6]; [17]): 31.3 mg/kg/day
NEL (rat [6]; [23]): 7.8 mg/kg/day
NOAEL (rat [6]; [23]): 15.7 mg/kg/day
LEL (rat [6]; systemic / pathology microscopic / liver / vacuolization cytoplasmic): 15.7 mg/kg/day
LEL (mouse [7]): 21 mg/kg/day
LOAEL (mouse [7]): 46 mg/kg/day
NEL (mouse [7]): < 21 mg/kg/day
NOAEL (mouse [7]): 21 mg/kg/day
LEL (mouse [8]; [24]): 80 mg/kg/day
NEL (mouse [8]; [24]): < 80 mg/kg/day
LOAEL (mouse [8]; [25]): > 200 mg/kg/day
NOAEL (mouse [8]; [25]): ≥ 200 mg/kg/day
LEL (mouse [8]; [26]): 80 mg/kg/day
NEL (mouse [8]; [26]): < 80 mg/kg/day
LOAEL (mouse [8]; [27]): > 200 mg/kg/day
NOAEL (mouse [8]; [27]): ≥ 200 mg/kg/day
LEL (rat [9]; [28]): 7 mg/kg/day
NEL (rat [9]; [28]): < 7 mg/kg/day
LOAEL (rat [9]; [29]): > 15 mg/kg/day
NOAEL (rat [9]; [29]): ≥ 15 mg/kg/day
LEL (rat [10]; [30]): 100 mg/kg/day
LOAEL (rat [10]; [30]): > 100 mg/kg/day
NEL (rat [10]; [30]): 50 mg/kg/day
NOAEL (rat [10]; [30]): ≥ 100 mg/kg/day
LEL (rat [10]; [31]): 100 mg/kg/day
LOAEL (rat [10]; [31]): > 100 mg/kg/day
NEL (rat [10]; [31]): 50 mg/kg/day
NOAEL (rat [10]; [31]): ≥ 100 mg/kg/day
LOAEL (mouse [11]; [17]): 93.8 mg/kg/day
LEL (mouse [11]; [32]): 93.8 mg/kg/day
NEL (mouse [11]; [32]): 47 mg/kg/day
NOAEL (mouse [11]; [32]): 47 mg/kg/day
LEL (mouse [12]; group: developmental, developmental / developmental malformation / mouth / jaw / cleft palate): 80 mg/kg/day
LOAEL (mouse [12]; [33]): > 160 mg/kg/day
NEL (mouse [12]; [33]): 40 mg/kg/day
NOAEL (mouse [12]; [33]): ≥ 160 mg/kg/day
LEL (mouse [12]; [26]): 80 mg/kg/day
LOAEL (mouse [12]; [34]): > 160 mg/kg/day
NEL (mouse [12]; [34]): 40 mg/kg/day
NOAEL (mouse [12]; [34]): ≥ 160 mg/kg/day
